# Literature values in patent US12577179B2, “Methods and compositions for soil regeneration and improved soil hydrology” (Locus Solutions IPCo, LLC, priority 2021, dated 2026).
# Conditions: surfactant micelles; no method or source given
row,micelle size,Compound
1,15.4 nm,Nonidet P40
2,3.5-6 nm,CCCCCCCCCCCCOS(=O)(=O)[O-].[Na+] [sodium dodecyl sulfate]
3,7.5 nm,Triton X-100
4,11.7 nm,CCCCCCCC/C=C\CCCCCCCC(=O)OCCOCC(OCCO)C1OCC(OCCO)C1OCCO (stereo not shown) [Tween-80]
